Entries after “also recorded” stand apart in the source; their conditions may differ. Like-named read-outs stand apart in the source and are kept apart here.
What was measured:
HCoV-229E [1] = assay: Dose-response of HCoV-229E viral load (dsRNA) in Huh-7.5.1 cells; type: cell-based, human coronavirus 229E (HCoV-229E); settings: Human coronavirus 229E, read-out: ED50 (HCoV-229E)
HCoV-229E [2] = type: cell-based, human coronavirus 229E (HCoV-229E)
Huh-7.5.1 cells = settings: single dose of 10 μM
Description: High content screening methodology and parameters. Monitoring of the total number of cells (based on nuclei staining) and number of virus infected cells (based on dsRNA and Nucleocapsid staining) was performed using the CellInsight CX7™ High Content Screening platform (Thermo Fisher™), as previously described (33042061). Shortly, nuclei are identified and counted using the 350′461 nm wavelength (Hoechst 33342™); cell debris and other particles are deducted based on a size filter tool. A Region of Interest (ROI, or “circle”) is then drawn around each host cell and validated against the bright field image to correspond with host cell membranes. The ROI encompasses the “spots”, where dsRNA (485/521 nm wavelength) and SARS-CoV-2 nucleocapsid (533/588 nm wavelength) are localized. Finally, the software (HCS Studio Cell Analysis Software™, version 4.0) identifies, counts and measures the pixel area and intensity of the spots within each circle. The fluorescent spot area measured within each cell (circle) is then added and quantified for each well. The total circle spot intensity of each well corresponds to the viral load, and is normalized to non-infected cells, and to cells infected with no compound. Nuclei stain (Hoechst 33342™) was used to quantify cell loss (due to cytotoxicity or loss of adherence), and to normalize the changes in viral load resulting from a decrease in cell numbers.

SARS-CoV-2 [3] = assay: Viral titer released from 48-hour SARS-CoV-2 infected Calu-3 cells; type: cell-based; settings: 48 hours after infection, 100 μM
SARS-CoV-2 [4] = assay: Dose-response inhibition in three SARS-CoV-2 infected immortalized cell lines (Huh-7.5.1, Caco-2, Calu-3); type: cell-based; settings: Severe acute respiratory syndrome coronavirus 2; Huh-7.5.1, Caco-2 and Calu-3 cells; read-out: ED50 in all investigated cell lines
SARS-CoV-2 [5] = assay: SARS-CoV-2 infected primary donor-derived colon organoids, intracellular N protein; type: cell-based; settings: donor intestinal organoids monolayer, 72-hours post infection, dose-dependent
SARS-CoV-2 [6] = assay: Dose-response of SARS-CoV-2 viral load (intracellular N protein) in Huh-7.5.1 cells; type: cell-based
HCoV-229E [7] = assay: High-content screen of GSK3β-focused library in HCoV-229E infected Huh-7.5.1 cells (intracellular dsRNA); type: cell-based, human coronavirus 229E (HCoV-229E); settings: Human coronavirus 229E, single dose of 10 μM, Z′ 0.7
[8] = test system: SARS-CoV-2 Spike S1 protein expression; type: cell-based
SARS-CoV-2 [9] = assay: High-content screen of GSK3β-focused library in SARS-CoV-2 infected Huh-7.5.1 cells (dsRNA or nucleocapsid); type: cell-based; settings: Severe acute respiratory syndrome coronavirus 2, single dose of 10 μM, Huh-7.5.1 cells
in vitro = settings: human
[10] = molecular target: T1, glycogen synthase kinase-3-beta (Homo sapiens, UniProt P49841); assay: In vitro phosphorylation of nucleocapsid peptides, ADP-Glo, GSK3b; type: biochemical
T1 construct: GST; purchased SignalChem Go9-10G
T1 sequence (P49841 whole entry): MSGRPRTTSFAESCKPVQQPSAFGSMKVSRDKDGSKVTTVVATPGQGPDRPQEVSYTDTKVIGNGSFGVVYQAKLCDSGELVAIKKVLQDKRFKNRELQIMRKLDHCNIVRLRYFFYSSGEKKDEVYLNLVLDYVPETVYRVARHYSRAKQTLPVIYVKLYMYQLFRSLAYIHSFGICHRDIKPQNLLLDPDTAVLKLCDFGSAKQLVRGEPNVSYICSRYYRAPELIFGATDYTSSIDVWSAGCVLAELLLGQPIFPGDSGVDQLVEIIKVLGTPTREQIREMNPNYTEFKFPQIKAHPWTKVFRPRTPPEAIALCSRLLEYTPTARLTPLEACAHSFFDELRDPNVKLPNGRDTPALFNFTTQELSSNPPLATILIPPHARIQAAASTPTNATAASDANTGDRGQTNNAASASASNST

casein kinase 1-delta = molecular target: T2, casein kinase 1-delta (Homo sapiens, UniProt P48730); assay: In vitro phosphorylation of nucleocapsid peptides, ADP-Glo, CK1d; type: biochemical; settings: peptide ~250 μM, 250 μM ATP, 30 min at 30° C.; duplicate measurements
T2 construct: GST; purchased SignalChem C65-10G
T2 sequence (P48730 whole entry): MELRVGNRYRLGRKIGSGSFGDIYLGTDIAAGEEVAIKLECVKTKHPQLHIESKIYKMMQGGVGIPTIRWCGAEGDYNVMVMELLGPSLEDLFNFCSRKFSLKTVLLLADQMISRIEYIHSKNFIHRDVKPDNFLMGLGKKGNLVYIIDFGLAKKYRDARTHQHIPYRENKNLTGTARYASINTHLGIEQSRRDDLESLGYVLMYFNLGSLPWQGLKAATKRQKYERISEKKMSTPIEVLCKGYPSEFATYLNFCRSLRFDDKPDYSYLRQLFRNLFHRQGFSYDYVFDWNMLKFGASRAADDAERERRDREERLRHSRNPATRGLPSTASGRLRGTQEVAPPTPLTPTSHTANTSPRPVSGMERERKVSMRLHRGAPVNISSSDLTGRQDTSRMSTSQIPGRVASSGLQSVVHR

[11] = molecular target: T3, casein kinase 1-gamma-1 (CK1γ1) (Homo sapiens, UniProt Q9HCP0); assay: In vitro phosphorylation of nucleocapsid peptides, ADP-Glo, CK1g1; type: biochemical; settings: peptide ~250 μM, 250 μM ATP, 30 min at 30° C.; duplicate measurements
T3 construct: GST; purchased SignalChem C68-11G
T3 sequence (Q9HCP0 whole entry): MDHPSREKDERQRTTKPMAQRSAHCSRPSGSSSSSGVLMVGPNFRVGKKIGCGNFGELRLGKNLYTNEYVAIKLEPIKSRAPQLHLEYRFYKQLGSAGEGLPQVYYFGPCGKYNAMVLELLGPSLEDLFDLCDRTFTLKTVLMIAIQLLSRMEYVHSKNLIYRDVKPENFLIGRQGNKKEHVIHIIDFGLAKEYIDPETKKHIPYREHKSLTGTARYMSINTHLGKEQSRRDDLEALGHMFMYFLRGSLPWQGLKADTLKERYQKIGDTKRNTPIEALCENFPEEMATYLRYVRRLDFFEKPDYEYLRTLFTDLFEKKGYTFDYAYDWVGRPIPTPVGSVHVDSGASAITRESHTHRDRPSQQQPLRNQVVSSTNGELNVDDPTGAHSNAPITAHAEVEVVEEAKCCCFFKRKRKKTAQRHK

[12] = molecular target: T4, protein kinase C-alpha (PKC α) (Homo sapiens, UniProt P17252); assay: In vitro phosphorylation of nucleocapsid peptides, ADP-Glo, PKCa; type: biochemical; settings: Mean ± S.Dev. (n = 3); no kinase control = 100
T4 construct: GST; purchased SignalChem P61-18G

[13] = molecular target: cyclin-dependent kinase 2/cyclin A2 (CDK2/A2) (Homo sapiens, UniProt P24941); assay: In vitro phosphorylation of nucleocapsid peptides, ADP-Glo, CDK2/cyclin A2; type: biochemical; settings: peptide ~250 μM, 250 μM ATP, 30 min at 30° C.; duplicate measurements
[14] = molecular target: cAMP-dependent protein kinase catalytic subunit-alpha (PKACa) (Homo sapiens, UniProt P17612); assay: In vitro phosphorylation of nucleocapsid peptides, ADP-Glo, PKACa; type: biochemical; settings: peptide ~250 μM, 250 μM ATP, 30 min at 30° C.; duplicate measurements
[15] = molecular target: T5, extracellularly-regulated kinase-1 (ERK1) (Homo sapiens, UniProt P27361); assay: In vitro phosphorylation of nucleocapsid peptides, ADP-Glo, ERK1; type: biochemical; settings: peptide ~250 μM, 250 μM ATP, 30 min at 30° C.; duplicate measurements
T5 construct: GST; purchased SignalChem M29-10G
T5 sequence (P27361 whole entry): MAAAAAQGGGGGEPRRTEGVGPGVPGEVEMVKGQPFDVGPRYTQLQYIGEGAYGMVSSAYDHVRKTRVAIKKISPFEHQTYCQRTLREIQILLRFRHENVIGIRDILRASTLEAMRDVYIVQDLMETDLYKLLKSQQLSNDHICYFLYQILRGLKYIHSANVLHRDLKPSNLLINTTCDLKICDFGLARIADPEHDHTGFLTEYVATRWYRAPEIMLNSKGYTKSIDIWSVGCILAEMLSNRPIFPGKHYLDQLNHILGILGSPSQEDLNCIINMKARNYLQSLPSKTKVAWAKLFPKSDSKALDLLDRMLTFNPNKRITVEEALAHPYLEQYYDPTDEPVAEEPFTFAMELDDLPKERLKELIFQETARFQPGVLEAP

PKCa + GSK3b = assay: In vitro phosphorylation of nucleocapsid peptides, ADP-Glo, PKCa + GSK3b combined; type: biochemical, human; settings: Mean ± S.Dev. (n = 3); no kinase control = 100

Compound: CSc1ccc(-n2cnc3ccc(-c4nnc(CCc5cccc(C#N)c5)o4)cc32)cc1 [Compound P-0717632]
- EC50 (HCoV-229E [1]): ~3 µM
- average Combination Index (CI) (HCoV-229E [2]): 0.7
- Average cell loss (%) (Huh-7.5.1 cells): 24.4%
- reduction of release of infective particles (SARS-CoV-2 [3]): 2 log
- EC50 (SARS-CoV-2 [4]): 4 to 7 µM
- effect on intracellular N protein levels in organoids (SARS-CoV-2 [5]): greatly decrease intracellular N protein levels
- SARS-CoV-2 Selectivity Index SI (CC50 over ED50) (SARS-CoV-2 [6]; Huh 7.5.1 cells): 68
- ED80 (SARS-CoV-2 [6]; SARS-CoV-2 infected Huh-7.5.1 cells): 10 µM
- EC50 (SARS-CoV-2 [6]; Severe acute respiratory syndrome coronavirus 2, Huh-7.5.1, Huh-7.5.1 cells, intracellular N protein, read-out: ED50 (SARS-CoV-2)): ~3 µM
- inhibition at 10 µM (HCoV-229E [7]): 97.6%
- Spike S1 protein expression [8]: blocked; also recorded: reduced
- inhibition at 10 µM (SARS-CoV-2 [9]; Z′ 0.3, read-out: SARS-CoV-2 inhibition (% dsRNA)): 68.2%
- inhibition at 10 µM (SARS-CoV-2 [9]; average of screens 1 and 2, read-out: Average SARS-CoV-2 Nucleocapsid inhibition): 79.3%
- inhibition at 10 µM (SARS-CoV-2 [9]; screen 1, Z′ 0.7, read-out: SARS-CoV-2 inhibition (% Nucleocapsid) 1): 75.2%
- inhibition at 10 µM (SARS-CoV-2 [9]; screen 2, Z′ 0.5, read-out: SARS-CoV-2 inhibition (% Nucleocapsid) 2): 83.3%
- CC50 (in vitro): > 100 µM

Compound: RNSTPGSSRGTSPAR [SCV2-N [195-209], synthetic peptide modeled after SARS-CoV-2 nucleocapsid protein phosphorylation sites]
- Relative Phosphorylation to No Kinase Control, GSK3b ([10]; Mean ± S.Dev. (n = 3), no kinase control = 100): 3291 ± 57
- Relative Phosphorylation to Autophosphorylation Control (set at 100), GSK3b ([10]; peptide ~250 μM, 250 μM ATP, 30 min at 30° C., duplicate measurements): 137
- Relative Phosphorylation to Autophosphorylation Control (set at 100), CK1d (casein kinase 1-delta): 101
- Relative Phosphorylation to Autophosphorylation Control (set at 100), CK1g1 [11]: 104
- Relative Phosphorylation to No Kinase Control, PKCa [12]: 3301 ± 114
- Relative Phosphorylation to Autophosphorylation Control (set at 100), CDK2 + Cyclin A2 [13]: 104
- Relative Phosphorylation to Autophosphorylation Control (set at 100), PKACa [14]: 151
- Relative Phosphorylation to Autophosphorylation Control (set at 100), ERK1 [15]: 102
- Relative Phosphorylation to No Kinase Control, PKCa + GSK3b (PKCa + GSK3b): 4262 ± 27
